Laboratory results reported in PubChem BioAssay AID618 (Sanford-Burnham Center for Chemical Genomics, 2007).
Activity calls are given as the source filed them. The rule behind the calls is not given here.

Test system: MT1-MMP promoter luciferase reporter cells, luminescence
Test: inhibitors of MT1-MMP promoter transcription, cell-based, luciferase reporter, luminescence (AID 618);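 note: actives suppress MT1-MMP promoter-driven transcription so potencies describe inhibitors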

| SMILES | EC50 |
| --- | --- |
| CCc1nnc(NC(=O)c2ccc(OC)cc2OC)s1 | 6.08 µM |
| NC(=O)c1c(NC(=O)c2cc3ccccc3o2)sc2c1CCC2 | 6.54 µM |
| O=C(O)CSCC(=O)Nc1ccc(C2CCCCC2)cc1 | 0.58 µM |
| CCOc1ccc(NC(=O)c2cnsn2)cc1 | 8.78 µM |
| CC1CCc2nc(NC(=O)C3CCCO3)sc2C1 (configuration not stated) | 12.4 µM |
| COc1ccc2nc(-c3ccc(N)cc3)[nH]c2c1 | > 50 µM (inactive) |
| COc1cccc(C(=O)NCCC2=CCCCC2)c1 | 8.74 µM |
| C=CCn1c(C)cc(C(=O)CSc2nc3ccccc3[nH]2)c1C | 2.64 µM |
| Cc1cc(C(=O)CSc2nnc(-c3cccs3)o2)c(C)n1-c1ccccc1 | 7.72 µM |
| O=C(Nc1ccc(CN2CCOCC2)cc1)c1cc2ccccn2n1 | 3.35 µM |
| Cc1c(NC(=O)c2coc(=O)c(Br)c2)c(=O)n(-c2ccccc2)n1C | 13.1 µM |
| CCOc1ccc(C(=O)NCCc2ccccc2)cc1 | 2.56 µM |
| CCOc1ccc(OCc2ccc(C(=O)OCc3ccccn3)o2)cc1 | 3.05 µM |
| Cc1cc(/C=N/n2cnnc2)c(C)n1-c1ccc(OCc2ccc(Cl)cc2Cl)cc1 | 9.47 µM |
| CN(C(=O)c1ccco1)c1nc2c(s1)CCCC2 | 7.12 µM |
| Cc1cccc(C(=O)N2CCN(C(=O)c3cccc(C)c3)C(C)C2)c1 (configuration not stated) | > 50 µM (inactive) |
| Cc1ccnc(Nc2nc3ccccc3o2)n1 | 13 µM |
| COc1cccc(C(=O)/C=C/Nc2cccc(O)c2)c1 | 0.18 µM |
| C/C(=N/NC(=O)c1cc(C2CC2)[nH]n1)c1cccs1 | 1.77 µM |
| COc1ccc(-n2ncc3c(NC(C)C)ncnc32)cc1 | 5.36 µM |
| CCOC(=O)C1CCCCN1C(=O)CCc1c(C)nc2cc(-c3ccccc3)nn2c1C (configuration not stated) | 1.15 µM |
| CCCc1ccc(-c2ccc(F)c(N)c2)nc1 | 0.66 µM |

| SMILES | EC50 |
| --- | --- |
| Cc1csc(NC(=O)C2COc3ccccc3O2)n1 (configuration not stated) | 1.64 µM |
| CCc1ccc2oc(-c3cccc(N)c3)nc2c1 | 3.93 µM |
| COc1ccc(-c2cc3nnc(-c4ccccc4)nc3s2)cc1 | 0.86 µM |
| Cc1ccc(C(=O)COC(=O)c2cccs2)cc1 | 18.6 µM |
| Clc1ccccc1OCc1nc(-c2ccccn2)no1 | 6.65 µM |
| CCc1cc2c(=O)n(Cc3ccco3)c(SCc3c(C)noc3C)nc2s1 | > 50 µM (inactive) |
| Cc1nc(NC2=NCN(CCCN3CCOCC3)CN2)nc2c(C)cccc12 | 34.3 µM |
| CCn1c(SCC(=O)Nc2ccccc2C)nnc1-c1ccccc1O | > 50 µM (inactive) |
| Cc1ccc(NC2=Nc3ccccc3CC2)cc1 | 2.72 µM |
| Cc1cc(-c2csc(N)n2)c(C)n1CCc1ccccc1 | 13.2 µM |
| COc1ccc(-c2cc(C(=O)O)c(C)o2)cc1OC | 3.55 µM |
| COC(=O)Cc1ccc(NC(=O)c2ccc(C(C)(C)C)cc2)cc1 | 0.31 µM |
| O=C(NCc1cccs1)c1nc2c(nnn2Cc2ccccc2Cl)c(=O)[nH]1 | > 50 µM (inactive) |
| c1ccc(-c2noc(-c3cccs3)n2)nc1 | > 50 µM (inactive) |
| O=C(c1cccc(COc2ccc(Cl)cc2Cl)c1)N1CCN(c2ccccn2)CC1 | 12.6 µM |
| O=C(/C=C/Nc1cccc(O)c1)c1ccccc1 | 1.32 µM |
| Cc1nc2cc(-c3cccc(F)c3)nn2c(C)c1CCC(=O)NC(C)CCc1ccco1 (configuration not stated) | 1.12 µM |
| O=C(Nc1cccc(O)c1)c1noc2c1CCCCC2 | 0.23 µM |
| Cn1ccnc1SCc1cn2cc(Br)ccc2n1 | 15 µM |
| CC(=O)c1sc(NC(=O)C2COc3ccccc3O2)nc1C (configuration not stated) | 5.39 µM |
| c1ccc(C2=NNC(=NC3CC3)SC2)cc1 | 1.7 µM |
| Cc1cc(C(=O)CSc2nc3ccccc3[nH]2)c(C)n1CC1CCCO1 (configuration not stated) | 3.86 µM |

| SMILES | EC50 |
| --- | --- |
| COC(=O)c1ccc(-c2nc(-c3cccs3)no2)cc1 | 1.12 µM |
| CC1=CC(C)(C)Nc2ccc(OC(=O)CN3C(=O)CCC3=O)cc21 | 42 µM |
| COc1ccc(C(=O)Nc2ccc3c(c2)OCCO3)cc1 | 2.98 µM |
| O=C1c2ccccc2S(=O)(=O)N1Cc1nc2ccccc2s1 | 3.06 µM |
| O=C(O)CCSc1nc2ccccc2s1 | 15.4 µM |
| Cc1cc(NCCCn2ccnc2)n2ncc(-c3ccc(Cl)cc3)c2n1 | 8.72 µM |
| Cc1ccc(CNc2nc3ccccc3s2)s1 | 1.67 µM |
| Nc1nc(Nc2ccc(Cl)cc2)nc2ccccc12 | 2.13 µM |
| c1ccc(-c2ccc(-c3ccccn3)nn2)nc1 | 4.2 µM |
| Cc1nn2cc(-c3ccccc3)nc2s1 | 12.3 µM |
| Cc1ccccc1NC(=O)c1cnc2ccccn2c1=O | 2.13 µM |
| CC1CC(C)(C)Nc2ccc(OC(=O)c3ccco3)cc21 (configuration not stated) | 3.01 µM |
| CC1CCN(c2nc3ccc(C(=O)O)cc3s2)CC1 | 0.35 µM |
| Cn1c(-c2ccccc2)cnc1SCC(=O)N1CCCCC1 | 2.88 µM |
| Nc1cccc2nc3ccccc3cc12 | 21.9 µM |
| Cc1ccc(C(=O)/C=C2\NCC(C)NC2=O)cc1 (configuration not stated) | 3.53 µM |
| Brc1ccc(-c2nc(-c3ccccn3)no2)o1 | 2.14 µM |
| COc1ccc(N=CC2=C(O)c3ccccc3C2=O)c(OC)c1 | 0.79 µM |
| CCOc1ccc(-c2nnc(-c3ccco3)o2)cc1 | 1.42 µM |
| Cc1csc(NC(=O)c2cc3c(s2)CCCC3)n1 | 1.26 µM |
| COc1cc([N+](=O)[O-])ccc1N/C=C/C(=O)c1cccs1 | 2.05 µM |
| CCc1ccc(NC(=O)c2noc3c2CCC3)cc1 | 4 µM |

| SMILES | EC50 |
| --- | --- |
| O=C(Nc1ccccn1)c1cc2ccccc2o1 | > 50 µM (inactive) |
| Cc1ccc2nc(-c3cccc(N)c3)oc2c1 | 3.71 µM |
| CC(C)(C)c1ccc(C(=O)Nc2ccc(CC(=O)O)cc2)o1 | 0.23 µM |
| Cc1cc(N)n2nc(-c3ccccc3)cc2n1 | 34.4 µM |
| CN(C)CCCNS(=O)(=O)c1ccc(N2CCC(c3ccc(Cl)cc3)=N2)cc1 | 12 µM |
| Cc1ccc(NC(=O)c2ccc3c(c2)OCCO3)cc1 | 1.71 µM |
| COc1cccc(Cn2c(NCc3cccnc3)nc3c2c(=O)n(C)c(=O)n3C)c1 | 0.25 µM |
| CCC/C(O)=C1\C(=O)CC(C)(C)CC1=Nc1ccc(OC)cc1OC | 23.6 µM |
| O=C(CCCc1ccccc1)c1ccc2c(c1)OCCO2 | 0.28 µM |
| CC(C)c1ccc2oc(-c3ccc(N)cc3)nc2c1 | 1.66 µM |
| Cc1nc(Nc2nc3ccccc3o2)nc2c1CCC2 | 3.09 µM |
| CCOc1ccc2nc(NC(=O)c3ccoc3C)sc2c1 | 0.97 µM |
| CCOc1ccc(-c2cc(CCCC(=O)NCCCOC)no2)cc1 | 8.32 µM |
| Cc1ccc(-c2nc3cc(N)ccc3o2)c(C)c1 | 2.68 µM |
| Cc1oc(-c2ccc3c(c2)OCCO3)cc1C(=O)O | 2.94 µM |
| c1ccc(-c2nc3cc4ccccc4cc3[nH]2)nc1 | 0.8 µM |
| c1ccc(OCCSc2nnc3sc4ccccc4n23)cc1 | 1.43 µM |
| Cc1cc(C)n(-c2nc3ccccc3nc2N2CCC(C)CC2)n1 | > 50 µM (inactive) |
| O=C(Nc1ccc(NC(=O)c2ccco2)nc1)c1ccccn1 | 9.01 µM |
| CCN(CC)c1ccc2cc(-c3nc4ccccc4[nH]3)c(=O)oc2c1 | 1.06 µM |
| Nc1ccc(-c2nc3ccc(N)cc3o2)cc1 | 14 µM |
| COc1ccc(C(=O)/C=C/Nc2ccccn2)cc1 | 0.19 µM |

| SMILES | EC50 |
| --- | --- |
| O=C(/C=C\Nc1ccccn1)c1ccc(Cl)cc1 | 1.18 µM |
| Cc1ccc(C(=O)Nc2nc3c(s2)CCCC3)o1 | 5.98 µM |
| O=c1c2c(nc3cc(-c4ccc(F)cc4)[nH]n13)CCCC2 | 6.48 µM |
| Cc1ccsc1/C=C1\CCc2ccccc2C1=O | 3.09 µM |
| COc1ccc(-c2nc3ccccc3[nH]2)cc1 | 2.72 µM |
| CC(C)Nc1ncnc2c1cnn2-c1ccc(Cl)cc1 | 3.85 µM |
| CCc1ccc(-c2nnn(CCC(=O)OC)n2)cc1 | 2.02 µM |
| CC(C)C(=O)NC(c1ccco1)c1ccc2cccnc2c1O (configuration not stated) | 27.6 µM |
| C=CCNc1nc(-c2ccccn2)nnc1-c1ccccc1 | 15.2 µM |
| COc1ccc(C2=Nc3ccccc3OC2)cc1 | 38.1 µM |
| Cc1ccc(-c2nc3cc(N)ccc3o2)cc1 | 2.91 µM |
| O=C(NC1=NC2CCCCC2N1)c1ccccc1 (configuration not stated) | 12.9 µM |
| COc1ccccc1-c1cc(C(F)(F)F)nc(S(=O)(=O)CCCC(=O)N2CCOCC2)n1 | 22 µM |
| Cc1cc(C)c(OCC(=O)Nc2cccc(O)c2)cc1C | 26.6 µM |
| O=C(CCCOc1ccccc1)N1CCCCC1 | 6.96 µM |
| COc1cccc(-c2nc(-c3ccccn3)no2)c1 | 0.66 µM |
| Cc1ccc(-c2nc(-c3ccccn3)no2)cc1 | < 0.098 µM |
| O=C(Nc1nccs1)c1cc2c(s1)CCCCC2 | 0.55 µM |
| Cc1oncc1C(=O)Nc1ccc(C(F)(F)F)cc1 | 5.65 µM |
| CN1CCN(c2ncnc3c2cnn3-c2ccc(Cl)cc2)CC1 | 3.9 µM |
| O=C1/C(=C/Nc2ccc3c(c2)OCO3)CCc2ccccc21 | 0.81 µM |
| CCCCc1ccc(-c2nc(-c3ccncc3)no2)cc1 | 13.4 µM |

| SMILES | EC50 |
| --- | --- |
| CCCc1cc(C(=O)Nc2nccs2)cs1 | 12.7 µM |
| CCCCCCOc1ccc(CN2CCN(CCO)CC2)cc1 | 12.1 µM |
| Cc1ccccc1C(=O)N/N=C/c1ccc([N+](=O)[O-])s1 | 25.5 µM |
| CCCN1C=CC(=C2C(=O)c3ccccc3C2=O)C=C1 | < 0.098 µM |
| COc1ccc(NC(=O)/C(Cl)=C(/Cl)S(=O)(=O)Cc2ccc(C)cc2)cn1 | 14.5 µM |
| CN(C)c1nc(-c2ccccn2)nnc1-c1ccccc1 | > 50 µM (inactive) |
| CCCCN(C)C(=O)c1cc2cc3ccc(OC)cc3nc2s1 | 3.61 µM |
| CCc1ccc(-c2cc(C(=O)Nn3cnnc3)c3ccccc3n2)cc1 | 2.12 µM |
| Nc1ccc2nc(-c3ccccc3)sc2c1 | 1.91 µM |
| Cc1ccc(-c2csc3ncnc(Sc4nnc(CN5CCCCCC5=O)o4)c23)cc1 | 15 µM |
| CN(C)c1ccc(NC(=S)c2ccccn2)cc1 | 0.4 µM |
| CN1/C(=C\C=C\C2=[N+](C)c3ccc4ccccc4c3C2(C)C)C(C)(C)c2ccccc21 | 4.71 µM |
| COc1ccc(C(=O)Nc2nnc(-c3ccco3)s2)cc1 | 1.73 µM |
| COc1ccc(O)c(C(=O)CC(=O)c2ccccc2)c1 | 2.22 µM |
| Cc1ccc(C(=O)Nc2cccc(C(=O)O)c2)cc1S(=O)(=O)N1CCCCC1 | 7.25 µM |
| Cc1cnc(NC(=O)C2COc3ccccc3O2)s1 (configuration not stated) | 0.61 µM |
| COCCn1c(C)cc(C(=O)CSc2ccc(NC(C)=O)cc2)c1C | 8.54 µM |
| Cc1ccc2nc(-c3cccc(N)c3)[nH]c2c1 | 2.8 µM |
| COc1ccc(-c2noc(CCCC(=O)O)n2)cc1 | 0.77 µM |
| CC(=O)Nc1ccc2oc(-c3cc(F)c(F)cc3Cl)nc2c1 | 3.48 µM |
| CN1/C(=C/C(=O)c2nc(S(C)(=O)=O)ncc2Cl)C(C)(C)c2ccccc21 | 16.1 µM |
| COC(=O)CCn1nnc(-c2ccc(C(C)C)cc2)n1 | 0.11 µM |
